We go through 10 compounds from PMC3705371, “Helicusin E, Isochromophilone X and Isochromophilone XI: New Chloroazaphilones Produced by the Fungus Bartalinia robillardoides Strain LF550” (Marine Drugs, 2013).

The IC50 is the midpoint of a concentration-inhibition curve.

The test system of one series is Septoria tritici. In words: Antifungal assay, Septoria tritici (optical density). The class given is cell-based. The note with it: for IC50: Zymoseptoria tritici, read-out: IC50 Septoria tritici. The procedure:
Septoria tritici. The substances were dissolved in DMSO to a concentration of 10 mM and transferred into a 96-well microtiter plate. For screening purposes, the compounds were tested in a final concentration of 100 μM. The fungal strain S. tritici was cultured on MYG medium (1.0% malt extract, 0.4% yeast extract, 0.4% glucose·H2O, pH = 5.6) for four days, subsequently the culture was diluted to an optical density (600 nm) of 0.03 and added to the microtiter plate. After incubation for 48 h at 20 °C, the optical density was measured. The resulting values were compared to a positive (0.53 μM boscalid) and a negative control (no compound) on the same plate.

A further series has as its system Bacillus subtilis. Nature of the series: Antibacterial assay, Bacillus subtilis. It is filed as cell-based. Particulars: for IC50: Bacillus subtilis, antibacterial. The procedure:
(§1) Bacillus subtilis, Staphylococcus lentus, Xanthomonas campestris and Candida albicans. The antimicrobial assays were performed as reported by Schulz et al..

In another series the test system is Staphylococcus lentus. In words: Antibacterial assay, Staphylococcus lentus. Particulars: for IC50: Mammaliicoccus lentus, antibacterial. The class given is cell-based. The procedure:
as §1

For another series, the system named is Candida albicans. In words: Antifungal assay, Candida albicans. The note with it: for IC50: antifungal. It is filed as cell-based. The protocol: as §1
For the next series, the system named is Trichophyton rubrum. In words: Antifungal assay, Trichophyton rubrum (optical density). The class given is cell-based. Particulars: for IC50: Trichophyton rubrum, antifungal, 72 h at 28 °C. The protocol: Trichophyton rubrum. The substances were dissolved in DMSO to a concentration of 10 mM and transferred into a 96-well microtiter plate. For screening purposes, the compounds were tested in a final concentration of 100 μM. For inoculation 5 × 10^4 spores mL^−1 from the fungal strain T. rubrum diluted in Sabouraud medium (1.0% peptone, 2.0% glucose·H2O, pH = 5.6) were added to the microtiter plate. After incubation for 72 h at 28 °C the optical density was measured.

The test system of the next series is Phosphodiesterase 4. Nature of the series: Enzyme inhibition assay PDE4. The class given is biochemical. Particulars: for IC50: enzyme assay. The protocol: (§2) Enzyme inhibition assays PDE4 and AChE assays were performed as described by Schulz et al. and Kim et al., respectively.
The target of another series is Acetylcholinesterase (Homo sapiens, UniProt P22303). In words: biochemical. It is filed as biochemical. The note with it: for IC50: enzyme assay. The protocol:
as §2

Series [1] relates to human fibroblast cell line (KIF5). In words: Cytotoxicity assay (CellTiterBlue), KIF5. It is filed as cell-based. Particulars: KIF5 cells. The protocol: (§3) Cytotoxicity assays. The sensitivity of the cell lines KIF5 and HepG2 to the isolated compounds was evaluated by monitoring the metabolic activity using the CellTiterBlue Cell Viability Assay (Promega, Mannheim, Germany). The human fibroblast cell line (KIF5) was provided by the Institute for Experimental Tumor Research, Section Molecular Oncology, Kiel, Germany, and the human hepatocellular carcinoma cell line (HepG2) was obtained from the German Collection of Microorganism and Cell Cultures (DSMZ, Braunschweig, Germany). The cytotoxicity assays were performed as described by Schulz et al., apart from the cell concentration, which were 5000 KIF5 cells and 10,000 HepG2 cells per vial.
(In general: The colour change of resazurin is a common sign of viable cells or microbes.)

The subject of series [2] is human hepatocellular carcinoma cell line (HepG2). Nature of the series: Cytotoxicity assay (CellTiterBlue), HepG2. The class given is cell-based. The note with it: HepG2 cells. The protocol: as §3
Another series has as its system MRSA. The note with it: cited from earlier work.

Read-outs that look alike come from different tables or passages of the source.

Sequence of Acetylcholinesterase (P22303 32-614, species assumed): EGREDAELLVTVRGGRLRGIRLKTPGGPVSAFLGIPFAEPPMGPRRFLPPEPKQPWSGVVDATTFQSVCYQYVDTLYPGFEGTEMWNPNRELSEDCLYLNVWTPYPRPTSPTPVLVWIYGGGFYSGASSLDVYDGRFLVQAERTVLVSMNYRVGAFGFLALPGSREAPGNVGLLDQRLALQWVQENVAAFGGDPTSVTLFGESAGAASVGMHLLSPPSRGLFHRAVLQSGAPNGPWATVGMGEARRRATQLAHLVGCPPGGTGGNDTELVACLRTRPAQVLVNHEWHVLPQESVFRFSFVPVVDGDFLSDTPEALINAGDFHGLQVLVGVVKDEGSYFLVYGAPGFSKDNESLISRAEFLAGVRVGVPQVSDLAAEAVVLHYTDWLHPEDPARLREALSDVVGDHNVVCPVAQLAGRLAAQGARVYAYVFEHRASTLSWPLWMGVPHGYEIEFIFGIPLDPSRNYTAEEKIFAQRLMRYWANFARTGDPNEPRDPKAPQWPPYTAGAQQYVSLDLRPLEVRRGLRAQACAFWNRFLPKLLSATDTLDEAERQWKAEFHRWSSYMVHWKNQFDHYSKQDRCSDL

On to `O=C(Nc1ccccc1-c1ccc(Cl)cc1)c1cccnc1Cl` [boscalid, reference compound], for which the IC50 in the series with Septoria tritici (48 h) amounted to 0.53 µM.
Turning to `O=C(N[C@H](CO)[C@H](O)c1ccc([N+](=O)[O-])cc1)C(Cl)Cl` [chloram-phenicol, reference compound], the IC50 came out at 1.45 µM in the series with Bacillus subtilis and 2.13 µM in the series on Staphylococcus lentus.
`CC=CC(=O)OC1CC(C)OC(=O)CCC(O)CC1=O` (stereo not drawn) [compound 6, bartanolide]: the “antibacterial activity against Bacillus subtilis (in words)” value in the series on Bacillus subtilis was “inactive”. Besides, the “antibacterial activity against Staphylococcus lentus (in words)” value in the series with Staphylococcus lentus was “inactive”. Besides, in the series on Candida albicans, the “inhibition of Candida albicans (in words)” value was “inactive”. The “inhibition of Septoria tritici (in words)” value in the series with Septoria tritici was “inactive”. Besides, the “inhibition of Trichophyton rubrum (in words)” value in the series with Trichophyton rubrum is “inactive”. Moreover, the “inhibition of phosphodiesterase 4 (in words)” value in the series on Phosphodiesterase 4 was “inactive”. In addition, on Acetylcholinesterase, the “inhibition of acetylcholinesterase (in words)” value was “inactive”. For the same compound, the “cytotoxic activity (in words)” value in series [1] and in series [2] was “inactive” in each case.
Consider `CCC(C)C=C(C)C=CC1=CC2=C(Cl)C(=O)C(C)(O)C(=O)C2=CO1` (stereo not drawn) [deacetylsclerotiorin (2), 5-Chloro-3-[3,5-dimethyl-1,3-heptadien-1-yl]-7-hydroxy-7-methyl-6H-2-benzopyran-6,8(7H)-dione], for which the “antibacterial activity against Bacillus subtilis (in words)” value in the series on Bacillus subtilis was “Weak”. The IC50 in the series with Bacillus subtilis came out at 38.8 µM; in the series on Staphylococcus lentus, 43.6 µM; in the series on Candida albicans (Candida albicans), 24 µM; in the series with Septoria tritici (antifungal, 48 h at 20 °C) it was 7.45 µM; in the series with Trichophyton rubrum, 2.83 µM; against Phosphodiesterase 4 it was 2.79 µM. The IC50 against Phosphodiesterase 4 (listed as 2) was 2.8 µM; at Acetylcholinesterase, over 50 µM. The “antibacterial activity against Staphylococcus lentus (in words)” value in the series with Staphylococcus lentus is recorded as “Weak”. For the same compound, the “inhibition of Candida albicans (in words)” value in the series on Candida albicans was “Significant inhibition”. The “inhibition of Septoria tritici (in words)” value with Septoria tritici is recorded as “Significant inhibition”. The “inhibition of Trichophyton rubrum (in words)” value in the series on Trichophyton rubrum is on record as “Significant inhibition”.
`CCC(C)/C=C(C)/C=C/C1=CC2=C(Cl)C(=O)[C@@](C)(OC(=O)/C=C(\C)CC(=O)O)C(=O)C2=CO1` (stereo partly drawn) [helicusin A (1), helicusin A]: the IC50 with Bacillus subtilis is over 100 µM; in the series on Staphylococcus lentus, over 100 µM; with Candida albicans (Candida albicans), 24.4 µM; in the series on Septoria tritici (antifungal, 48 h at 20 °C) it was 7.6 µM; in the series on Trichophyton rubrum it was 7.23 µM; against Phosphodiesterase 4, over 10 µM. On Acetylcholinesterase, the IC50 turned out to be 2.1 µM. Also, the “inhibition of Candida albicans (in words)” value in the series on Candida albicans is “Significant inhibition”. In the series on Septoria tritici, the “inhibition of Septoria tritici (in words)” value is reported as “Significant inhibition”. In addition, in the series with Trichophyton rubrum, the “inhibition of Trichophyton rubrum (in words)” value is on record as “Significant inhibition”.
Consider `CCC(C)C(O)C(C)(O)/C=C/C1=CC2=C(Cl)C(=O)[C@@](C)(OC(=O)/C=C(\C)CC(=O)O)C(=O)C2=CO1` (stereo partly drawn) [helicusin E (3), helicusin E], for which the IC50 is over 100 µM with Bacillus subtilis; over 100 µM in the series with Staphylococcus lentus; over 200 µM in the series with Candida albicans (Candida albicans); over 100 µM in the series on Septoria tritici (antifungal, 48 h at 20 °C); over 100 µM in the series on Trichophyton rubrum; over 10 µM against Phosphodiesterase 4. For the same compound, the IC50 at Acetylcholinesterase was over 50 µM.
For the compound `CCC(C)/C=C(C)/C=C/C1=CC2=C(Cl)C(=O)C(C)(OC(C)=O)C(=O)C2=CN1CCCC(=O)O` (stereo not drawn) [isochromophilone IX], the MIC result in the series with MRSA is “approximately 100 μM”.
For the compound `CCC(C)/C=C(C)/C=C/C1=CC2=C(Cl)C(=O)[C@@](C)(OC(=O)/C=C(\C)CC(=O)O)C(=O)C2=CN1CCO` (stereo partly drawn) [isochromophilone X (4), isochromophilone X], the half-maximal inhibitory concentration (IC50) in the series on Bacillus subtilis is over 100 µM; with Staphylococcus lentus, over 100 µM; with Candida albicans (Candida albicans), over 100 µM; in the series on Septoria tritici (antifungal, 48 h at 20 °C) it was over 100 µM; in the series on Trichophyton rubrum it was over 80 µM; on Phosphodiesterase 4, 11.7 µM.
In the case of `CCC(C)/C=C(C)/C=C/C1=CC2=C(Cl)C(=O)C(C)(OC(=O)/C=C(\C)CC(=O)O)C(=O)C2(O)CO1` (stereo not drawn) [isochromophilone XI (5), isochromophilone XI], the “antibacterial activity against Bacillus subtilis (in words)” value in the series on Bacillus subtilis is “Weak”. In addition, the IC50 is 55.6 µM with Bacillus subtilis; 78.4 µM in the series with Staphylococcus lentus; over 100 µM with Candida albicans (Candida albicans); over 100 µM in the series with Septoria tritici (antifungal, 48 h at 20 °C); 41.5 µM in the series on Trichophyton rubrum; 8.3 µM at Phosphodiesterase 4. On Acetylcholinesterase, this compound gave an IC50 of over 50 µM. Further, the “antibacterial activity against Staphylococcus lentus (in words)” value with Staphylococcus lentus is given as “Weak”. In the series with Trichophyton rubrum, the “inhibition of Trichophyton rubrum (in words)” value is listed as “weak activity”.
In the series with Candida albicans, `C[C@@H]1[C@H](O)[C@@H](C)/C=C/C=C/CC/C=C/C=C/C=C/C=C/C(O[C@H]2O[C@H](C)[C@@H](O)[C@H](N)[C@@H]2O)CC2O[C@](O)(CC(O)C(O)CCC(O)CC(O)CC(O)CC(=O)O[C@H]1C)CC(O)C2C(=O)O` (stereo partly drawn) [nystatin, reference compound] returned an IC50 of 5.8 µM.
